Patent US8232407B2, “Nitrogenous heterocyclic compounds with insecticidal activity, and the preparation and use thereof” (East China University of Science and Technology, priority 2008, dated 2012)

Columns and labels:
Type in all cases: in vivo
Settings in all cases: in vivo
Aphis craccivoral = test: Insecticidal activities to aphids, immersion method
Summary of the method: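 Wingless adult aphids feeding on bean sprouts were dipped 5 s in 500 ppm compound (DMF stock diluted in 0.2 mL/L aqueous Triton X-100), blotted and held at 23° C. Dead counted at 24 h, three replicates; mortality corrected against Triton-only controls.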

Nilaparvata lugens = test: Insecticidal activities to plant hopper, spraying method
Summary of the method: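 Nilaparvata lugens, 10 insects per tumbler, sprayed with 2 ml compound in acetone at 0.79-500 ppm, three replicates, aqueous acetone control. Dead insects counted after 24 h; mortality corrected against control survival.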

[1] = system: Pseudaletia separate Walker; test: Insecticidal activities to armyworm, leaf dipping and feeding
Summary of the method: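 Maize leaves dipped 3 s in acetone-formulated compound at 500 down to 1.57 ppm, dried and fed to armyworms, 10 insects per treatment in triplicate, aqueous acetone as control. Mortality was counted after 24 hours and corrected against control survival.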

Plutella xylostella = test: Insecticidal activities to diamondback moth, feeding dipped leaves
Summary of the method: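 Leaf-dip feeding assay: fresh cabbage leaves dipped 3 s in test solution, air-dried and fed to Plutella xylostella, 10 insects per treatment, three replicates, water control. Deaths counted after 24 h; mortality corrected against survival in the control group.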

With `O=[N+]([O-])C(=Cc1cnco1)C1=NCCN1Cc1ccc(Cl)nc1` [Compound 33] the “Aphis craccivoral Mortality (%) 500 ppm” value (Aphis craccivoral) was 100%, the “Nilaparvata lugens Mortality (%) 500 ppm” value (Nilaparvata lugens) was 100% and the “Pseudaletia separate Walker Mortality (%) 500 ppm” value [1] was 100%. For the same compound, the “Plutella xylostella Mortality (%) 500 ppm” value (Plutella xylostella) was 100%.
For `O=[N+]([O-])C(=Cc1cc(Cl)cs1)C1=NCCN1Cc1ccc(Cl)nc1` [Compound 21], the “Aphis craccivoral Mortality (%) 500 ppm” value (Aphis craccivoral) was 100%, the “Nilaparvata lugens Mortality (%) 500 ppm” value (Nilaparvata lugens) was 100% and the “Pseudaletia separate Walker Mortality (%) 500 ppm” value [1] was 100%. The “Plutella xylostella Mortality (%) 500 ppm” value (Plutella xylostella) was 100%.
For `CC(c1ccc(Cl)nc1)N1CCN=C1C(=Cc1ccc(Cl)o1)[N+](=O)[O-]` (racemic) [Compound 125], the “Aphis craccivoral Mortality (%) 500 ppm” value (Aphis craccivoral) was 100%, the “Nilaparvata lugens Mortality (%) 500 ppm” value (Nilaparvata lugens) was 100% and the “Pseudaletia separate Walker Mortality (%) 500 ppm” value [1] was 98%. The “Plutella xylostella Mortality (%) 500 ppm” value (Plutella xylostella) was 100%.
With `C[N+]1=C(C(=Cc2cc(Cl)c(Cl)o2)[N+](=O)[O-])N(Cc2ccc(Cl)nc2)CC1.[Cl-]` [Compound 251] the “Aphis craccivoral Mortality (%) 500 ppm” value (Aphis craccivoral) was 100%, the “Nilaparvata lugens Mortality (%) 500 ppm” value (Nilaparvata lugens) was 100% and the “Pseudaletia separate Walker Mortality (%) 500 ppm” value [1] was 100%. For the same compound, the “Plutella xylostella Mortality (%) 500 ppm” value (Plutella xylostella) was 100%.
`CC(c1ccc(Cl)nc1)N1CCN=C1C(=Cc1ccc([N+](=O)[O-])s1)[N+](=O)[O-]` (racemic) [Compound 129] was tested, and the “Aphis craccivoral Mortality (%) 500 ppm” value (Aphis craccivoral) was 100%, the “Nilaparvata lugens Mortality (%) 500 ppm” value (Nilaparvata lugens) was 100% and the “Pseudaletia separate Walker Mortality (%) 500 ppm” value [1] was 100%. The “Plutella xylostella Mortality (%) 500 ppm” value (Plutella xylostella) was 80%.
With `O=[N+]([O-])C(=Cc1ccoc1)C1=NCCN1Cc1cnc(Cl)s1` [Compound 69] the “Aphis craccivoral Mortality (%) 500 ppm” value (Aphis craccivoral) was 100%, the “Nilaparvata lugens Mortality (%) 500 ppm” value (Nilaparvata lugens) was 100% and the “Pseudaletia separate Walker Mortality (%) 500 ppm” value [1] was 100%. The “Plutella xylostella Mortality (%) 500 ppm” value (Plutella xylostella) was 100%.
`O=[N+]([O-])C(=Cc1ccc(Br)o1)C1=NCCN1Cc1cnc(Cl)s1` [Compound 72] was tested, and the “Aphis craccivoral Mortality (%) 500 ppm” value (Aphis craccivoral) was 100%, the “Nilaparvata lugens Mortality (%) 500 ppm” value (Nilaparvata lugens) was 100% and the “Pseudaletia separate Walker Mortality (%) 500 ppm” value [1] was 100%. For the same compound, the “Plutella xylostella Mortality (%) 500 ppm” value (Plutella xylostella) was 100%.
For `CC(=C(C1=NCCN1C(C)c1ccc(Cl)nc1)[N+](=O)[O-])c1ccco1` (racemic) [Compound 133], the “Aphis craccivoral Mortality (%) 500 ppm” value (Aphis craccivoral) was 48%, the “Nilaparvata lugens Mortality (%) 500 ppm” value (Nilaparvata lugens) was 50% and the “Pseudaletia separate Walker Mortality (%) 500 ppm” value [1] was 90%. For the same compound, the “Plutella xylostella Mortality (%) 500 ppm” value (Plutella xylostella) was 68%.
In the case of `O=[N+]([O-])C(=Cc1cc(Br)c(Br)s1)C1=NCCN1Cc1ccc(Cl)nc1` [Compound 25], the “Aphis craccivoral Mortality (%) 500 ppm” value (Aphis craccivoral) is reported as 100%, the “Nilaparvata lugens Mortality (%) 500 ppm” value (Nilaparvata lugens) is reported as 100% and the “Pseudaletia separate Walker Mortality (%) 500 ppm” value [1] is reported as 100%. For the same compound, the “Plutella xylostella Mortality (%) 500 ppm” value (Plutella xylostella) was 100%.
`O=[N+]([O-])C(=Cc1ccc([N+](=O)[O-])o1)C1=NCCN1CC1CCOC1` (centres unmarked) [Compound 93] was tested, and the “Aphis craccivoral Mortality (%) 500 ppm” value (Aphis craccivoral) was 78%, the “Nilaparvata lugens Mortality (%) 500 ppm” value (Nilaparvata lugens) was 87% and the “Pseudaletia separate Walker Mortality (%) 500 ppm” value [1] was 100%. The “Plutella xylostella Mortality (%) 500 ppm” value (Plutella xylostella) was 96%.
`O=[N+]([O-])C(=Cc1ccncc1)C1=NCCN1Cc1ccc(Cl)nc1` [Compound 39] was tested, and the “Aphis craccivoral Mortality (%) 500 ppm” value (Aphis craccivoral) was 24%, the “Nilaparvata lugens Mortality (%) 500 ppm” value (Nilaparvata lugens) was 35% and the “Pseudaletia separate Walker Mortality (%) 500 ppm” value [1] was 35%. The “Plutella xylostella Mortality (%) 500 ppm” value (Plutella xylostella) was 21%.
In the case of `CC[N+]1=C(C(=Cc2ccoc2)[N+](=O)[O-])N(Cc2ccc(Cl)nc2)CC1.[Cl-]` [Compound 286], the “Aphis craccivoral Mortality (%) 500 ppm” value (Aphis craccivoral) is reported as 100%, the “Nilaparvata lugens Mortality (%) 500 ppm” value (Nilaparvata lugens) is reported as 100% and the “Pseudaletia separate Walker Mortality (%) 500 ppm” value [1] is reported as 100%. The “Plutella xylostella Mortality (%) 500 ppm” value (Plutella xylostella) was 100%.
For `O=[N+]([O-])C(=Cc1cc(Br)co1)C1=NCCN1Cc1ccccc1` [Compound 107], the “Aphis craccivoral Mortality (%) 500 ppm” value (Aphis craccivoral) was 82%, the “Nilaparvata lugens Mortality (%) 500 ppm” value (Nilaparvata lugens) was 92% and the “Pseudaletia separate Walker Mortality (%) 500 ppm” value [1] was 96%. For the same compound, the “Plutella xylostella Mortality (%) 500 ppm” value (Plutella xylostella) was 85%.
In the case of `Cc1ccc(C=C(C2=NCCN2Cc2ccc(Cl)nc2)[N+](=O)[O-])cn1` [Compound 42], the “Aphis craccivoral Mortality (%) 500 ppm” value (Aphis craccivoral) is reported as 45%, the “Nilaparvata lugens Mortality (%) 500 ppm” value (Nilaparvata lugens) is reported as 36% and the “Pseudaletia separate Walker Mortality (%) 500 ppm” value [1] is reported as 87%. For the same compound, the “Plutella xylostella Mortality (%) 500 ppm” value (Plutella xylostella) was 90. %.
With `N#CC(=Cc1ccc([N+](=O)[O-])o1)C1=NCCN1Cc1ccc(Cl)nc1` [Compound 142] the “Aphis craccivoral Mortality (%) 500 ppm” value (Aphis craccivoral) was 100%, the “Nilaparvata lugens Mortality (%) 500 ppm” value (Nilaparvata lugens) was 100% and the “Pseudaletia separate Walker Mortality (%) 500 ppm” value [1] was 100%. The “Plutella xylostella Mortality (%) 500 ppm” value (Plutella xylostella) was 100%.
`CC(=C(C1=NCCN1Cc1ccc(Cl)nc1)[N+](=O)[O-])c1ccc(Br)s1` [Compound 119] was tested, and the “Aphis craccivoral Mortality (%) 500 ppm” value (Aphis craccivoral) was 75%, the “Nilaparvata lugens Mortality (%) 500 ppm” value (Nilaparvata lugens) was 91% and the “Pseudaletia separate Walker Mortality (%) 500 ppm” value [1] was 46%. For the same compound, the “Plutella xylostella Mortality (%) 500 ppm” value (Plutella xylostella) was 87%.
In the case of `O=[N+]([O-])C(=Cc1ccc(Cl)o1)C1=NCCN1CC1CCOC1` (centres unmarked) [Compound 94], the “Aphis craccivoral Mortality (%) 500 ppm” value (Aphis craccivoral) is reported as 46%, the “Nilaparvata lugens Mortality (%) 500 ppm” value (Nilaparvata lugens) is reported as 77% and the “Pseudaletia separate Walker Mortality (%) 500 ppm” value [1] is reported as 77%. For the same compound, the “Plutella xylostella Mortality (%) 500 ppm” value (Plutella xylostella) was 83%.
With `O=[N+]([O-])C(=Cc1oc(Br)cc1Br)C1=NCCN1Cc1ccc(Cl)nc1` [Compound 11] the “Aphis craccivoral Mortality (%) 500 ppm” value (Aphis craccivoral) was 100%, the “Nilaparvata lugens Mortality (%) 500 ppm” value (Nilaparvata lugens) was 100% and the “Pseudaletia separate Walker Mortality (%) 500 ppm” value [1] was 100%. The “Plutella xylostella Mortality (%) 500 ppm” value (Plutella xylostella) was 100%.
With `CC(=C(C1=NCCN1Cc1ccc(Cl)nc1)[N+](=O)[O-])c1ccco1` [Compound 111] the “Aphis craccivoral Mortality (%) 500 ppm” value (Aphis craccivoral) was 45%, the “Nilaparvata lugens Mortality (%) 500 ppm” value (Nilaparvata lugens) was 53% and the “Pseudaletia separate Walker Mortality (%) 500 ppm” value [1] was 77%. The “Plutella xylostella Mortality (%) 500 ppm” value (Plutella xylostella) was 25%.
In the case of `O=[N+]([O-])C(=Cc1ccc(Br)o1)C1=NCCCN1Cc1ccc(Cl)nc1` [Compound 50], the “Aphis craccivoral Mortality (%) 500 ppm” value (Aphis craccivoral) is reported as 100%, the “Nilaparvata lugens Mortality (%) 500 ppm” value (Nilaparvata lugens) is reported as 100% and the “Pseudaletia separate Walker Mortality (%) 500 ppm” value [1] is reported as 100%. For the same compound, the “Plutella xylostella Mortality (%) 500 ppm” value (Plutella xylostella) was 100%.
With `CCc1ccc(C=C(C2=[N+](C)CCN2Cc2ccc(Cl)nc2)[N+](=O)[O-])s1.[Cl-]` [Compound 272] the “Aphis craccivoral Mortality (%) 500 ppm” value (Aphis craccivoral) was 100%, the “Nilaparvata lugens Mortality (%) 500 ppm” value (Nilaparvata lugens) was 100% and the “Pseudaletia separate Walker Mortality (%) 500 ppm” value [1] was 100%. The “Plutella xylostella Mortality (%) 500 ppm” value (Plutella xylostella) was 100%.
For `O=[N+]([O-])C(=Cc1cc(Cl)co1)C1=NCCN1Cc1ccccc1` [Compound 106], the “Aphis craccivoral Mortality (%) 500 ppm” value (Aphis craccivoral) was 91%, the “Nilaparvata lugens Mortality (%) 500 ppm” value (Nilaparvata lugens) was 87% and the “Pseudaletia separate Walker Mortality (%) 500 ppm” value [1] was 59%. For the same compound, the “Plutella xylostella Mortality (%) 500 ppm” value (Plutella xylostella) was 75%.
For `C[N+]1=C(C(=Cc2ccc(CO)s2)[N+](=O)[O-])N(Cc2ccc(Cl)nc2)CC1.[Cl-]` [Compound 273], the “Aphis craccivoral Mortality (%) 500 ppm” value (Aphis craccivoral) was 100%, the “Nilaparvata lugens Mortality (%) 500 ppm” value (Nilaparvata lugens) was 100% and the “Pseudaletia separate Walker Mortality (%) 500 ppm” value [1] was 100%. The “Plutella xylostella Mortality (%) 500 ppm” value (Plutella xylostella) was 100%.
In the case of `C[N+]1=C(C(=Cc2ccoc2)[N+](=O)[O-])N(Cc2cnc(Cl)s2)CC1.[Cl-]` [Compound 276], the “Aphis craccivoral Mortality (%) 500 ppm” value (Aphis craccivoral) is reported as 100%, the “Nilaparvata lugens Mortality (%) 500 ppm” value (Nilaparvata lugens) is reported as 100% and the “Pseudaletia separate Walker Mortality (%) 500 ppm” value [1] is reported as 100%. For the same compound, the “Plutella xylostella Mortality (%) 500 ppm” value (Plutella xylostella) was 100%.
With `O=[N+]([O-])C(=Cc1ccc(Cl)o1)C1=NCCN1Cc1ccc(Cl)nc1` [Compound 4] the “Aphis craccivoral Mortality (%) 500 ppm” value (Aphis craccivoral) was 100%, the “Nilaparvata lugens Mortality (%) 500 ppm” value (Nilaparvata lugens) was 100% and the “Pseudaletia separate Walker Mortality (%) 500 ppm” value [1] was 100%. For the same compound, the “Plutella xylostella Mortality (%) 500 ppm” value (Plutella xylostella) was 100%.
`Cc1ccc(C=C(C2=NCCN2Cc2ccc(Cl)nc2)[N+](=O)[O-])o1` [Compound 12] was tested, and the “Aphis craccivoral Mortality (%) 500 ppm” value (Aphis craccivoral) was 100%, the “Nilaparvata lugens Mortality (%) 500 ppm” value (Nilaparvata lugens) was 100% and the “Pseudaletia separate Walker Mortality (%) 500 ppm” value [1] was 100%. For the same compound, the “Plutella xylostella Mortality (%) 500 ppm” value (Plutella xylostella) was 100%.
